Data on five molecules can be found in paper PMC10895676, “Antiviral Activity of Lipophilic Nucleoside Tetraphosphate Compounds” (Journal of Medicinal Chemistry, 2024).

Series [1] is described as follows: Cytotoxicity, inhibition of CEM/TK– cell proliferation. It is filed as cell-based. To be noted: human, CEM/TK– cells (CD4+ T-cells), read-out: toxicity CC50.
In another series the test system is HIV-1 (HE). As to the kind of experiment: Anti-HIV replication assay, HIV-1 (HE) in wild-type CEM/0 cells. It is filed as cell-based. The note with it: Human immunodeficiency virus 1, CCRF-CEM, read-out: HIV-1 (HE) EC50. In outline:
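Wild-type CEM/0 CD4+ T-cells (~3 × 10^5 cells/mL) infected with 100 CCID50/mL HIV-1(HE) alongside compound dilutions, incubated 4–5 days at 37 °C. Syncytia (giant cell) formation scored microscopically; EC50 is the concentration inhibiting HIV-induced giant cell formation by 50%.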

For the next series, the system named is pig liver esterase (PLE). As to the kind of experiment: Enzymatic hydrolysis with pig liver esterase (PLE). The note with it: pig liver esterase in phosphate buffer, PLE in phosphate buffer pH 7.3, 37 °C, read-out: PLE t1/2 (converted). It is filed as in vitro ADME. How it is done:
To confirm the enzymatic hydrolysis process, TetraPPPPro-nucleotides 4–9 bearing different kinds of lipophilic groups attached to the δ-phosph(on)ate group were incubated with PLE in phosphate buffer.
Then, 833 μL of 50 mM phosphate buffer (pH 7.3) and 125 μL of DMSO were added to the 6.0 mM hydrolysis solutions. The reaction was started by addition of 62.5 μL of PLE in phosphate buffer (100 units/mL), and the mixture was incubated at 800 rpm at 37 °C in a thermomixer. (1). At different times, aliquots (75 μL) were taken and stopped by the addition of […] of MeOH. The mixture was stored in liquid nitrogen. When testing, samples were warmed up to room temperature, and 60 μL of the liquid was directly injected into HPLC analysis. (2). 40 μL for each extraction was stored in liquid nitrogen. When testing, samples were warmed up to room temperature, and 30 μL of the liquid was taken and injected into the analytical RP-18-HPLC instrument. The calculation of t1/2 was performed analogously to that for the chemical hydrolysis studies.

Setting [2] is: wild-type CEM/0 cells, mean ± SD, n = 2–3.

Where two headings read alike, the source gives them in different places. A value given as a limit tells only on which side of the number the result lay.

As to `Cc1cn([C@H]2C=C[C@@H](COP(=O)(O)OP(=O)(O)OP(=O)(O)OP(=O)(O)O)O2)c(=O)[nH]c1=O` [d4T4P, 2′,3′-didehydro-2′,3′-dideoxythymidine-5′-tetraphosphate], the CC50 in series [1] is more than 100000 nM. In addition, the EC50 in the series with HIV-1 (HE) (setting [2]) stood at 420 ± 160 nM.

As to `CCCCCCCCCCCCCCCCCCOP(=O)(O)OP(=O)(O)OP(=O)(O)OP(=O)(O)OC[C@@H]1C=C[C@H](n2cc(C)c(=O)[nH]c2=O)O1` [compound 20, δ-(Alkyl-C18)-d4T4P], the half-life at 0.45 mM in the series with pig liver esterase (PLE) was more than 50 h. Moreover, in series [1], the CC50 was more than 100000 nM. Moreover, the 50% effective concentration (EC50) with HIV-1 (HE) (setting [2]) was determined as 710 ± 260 nM.

`CCCCCCCCCCCCCCCCCCP(=O)(OCCCC)OP(=O)(O)OP(=O)(O)OP(=O)(O)OC[C@@H]1C=C[C@H](n2cc(C)c(=O)[nH]c2=O)O1` (some centres unmarked) [5a, δ-(Alkyl-C4)-δ-C-(alkyl-C18)-d4T4P]: the half-life at 0.45 mM with pig liver esterase (PLE) is more than 50 h. In addition, the CC50 in series [1] was 49800 nM. For the same molecule, the EC50 in the series on HIV-1 (HE) is 330 ± 90 nM.

Turning to `CCCCCCCCCCCCCCCCCCP(=O)(O)OP(=O)(O)OP(=O)(O)OP(=O)(O)OC[C@@H]1C=C[C@H](n2cc(C)c(=O)[nH]c2=O)O1` [compound 24, δ-C-(Alkyl-C18)-d4T4P], the half-life at 0.45 mM in the series on pig liver esterase (PLE) is more than 50 h. Also, the CC50 in series [1] came out at 40100 nM. The EC50 in the series with HIV-1 (HE) (setting [2]) turned out to be 430 ± 370 nM.

Take `CCCCCCCCCCCCCCCCCCOP(=O)(OCCCC)OP(=O)(O)OP(=O)(O)OP(=O)(O)OC[C@@H]1C=C[C@H](n2cc(C)c(=O)[nH]c2=O)O1` (some centres unmarked) [4d, δ-(Alkyl-C4; alkyl-C18)-d4T4P]: the half-life at 0.45 mM in the series with pig liver esterase (PLE) was more than 50 h. Moreover, in series [1], the CC50 stood at 46800 nM. Further, the 50% effective concentration (EC50) in the series with HIV-1 (HE) (setting [2]) was 110 ± 10 nM.

By CC50 is commonly meant the concentration that lowers cell viability or growth by half. In general, EC50 refers to the concentration that produces a half-maximal response.
